We go through one compound from PMC9962735, “Synthesis and Cytotoxic Activity of the Derivatives of N-(Purin-6-yl)aminopolymethylene Carboxylic Acids and Related Compounds” (Molecules, 2023).

Broadly, the CC50 is the concentration giving 50% cytotoxicity.

Series [1] has as its system herpes simplex virus type 1 (HSV-1), including acyclovir-resistant HSV-1 strain. The arrangement: method as in doi:10.1002/ejoc.201900727, doi:10.1515/pac-2019-1214, doi:10.1007/s10593-021-02929-z. The conditions noted are these: HSV-1 including acyclovir-resistant strain; cited from earlier work.
For series [2], the system named is SNU-1 human gastric carcinoma. The series is described as follows: MTT cytotoxicity assay, SNU-1. The conditions noted are these: Homo sapiens, SNU1, 72 h, SNU-1, 72 h incubation, MTT, n = 3 (Table 3). Type of series: cell-based. From the text: (§1) The cytotoxicity of the test compounds was studied using the MTT assay against a number of cell lines: CT-26 murine colon carcinoma, 4T1 murine mammary carcinoma, MDA-MB-231 human breast adenocarcinoma, COLO201 human colorectal adenocarcinoma, HepG2 human hepatocellular carcinoma, A549 human non-small-cell lung carcinoma, SK-BR-3 human breast adenocarcinoma, SNU-1 human gastric carcinoma, Jurkat human acute T-lymphoblastic leukemia, and WI-38 human lung fibroblasts (normal cells). Doxorubicin (Dox) was used as a reference drug. Cells were incubated with test compounds for 72 h.
(§2) Cells were seeded in flat-bottomed 96-well plates at 10,000 cells per well (for A549, SNU-1, WI-38, CT-26, MDA-MB-231, 4T1, and HepG2 cells) or 20,000 cells per well (for SK-BR-3, Jurkat, and COLO201 cells) and cultivated in complete culture mediums (for composition of each medium, see the Supplementary Materials, Table S1) in a CO2 incubator at 37 °C. At the first stage of this study, the test compounds dissolved in DMSO were added to the wells with cells at final concentrations from 1 × 10^–4 to 1 × 10^–10 mol/L (A549, SK-BR-3, SNU-1, Jurkat, and WI-38) or 1 × 10^–3 to 1 × 10^–8 mol/L (CT-26, MDA-MB-231, 4T1, COLO201, and HepG2); DMSO concentration in the wells was finally 1%. A complete cultural medium and DMSO were added to the control wells at the same concentration as in the experimental wells; 0.1% Triton X-100 solution (10 µL) was added to the corresponding wells as a non-specific positive control. After adding the test compounds, the cells were incubated for 72 h in an atmosphere containing 5% CO2. After that, the nutrient medium was removed from each well (in the case of SK-BR-3, Jurkat, and COLO201, plates were pre-centrifuged at 1500 rpm for 6 min). A solution of the commercial anticancer agent Doxorubicin (Dox, Sigma-Aldrich, St. Louis, MO, USA) in DMSO was used as a reference drug. Then, 150 µL of a complete medium with the MTT reagent (PanEco, Moscow, Russia) at a concentration of 0.5 mg/mL was added and incubated for 2 h. Formazan crystals were dissolved in DMSO (200 µL) and the absorbance in the wells was measured at 540 nm and a reference wavelength of 650 nm (Sunrise, Tecan, Groding, Austria). Experiments were performed in three parallel runs. Cell viability after incubation in the presence of test compounds was calculated in relation to cell viability in the control wells according to the Formula (1):Cell viability (%) = (Aexp/Ac) × 100,(1) where Aexp is the optical density of solutions in the wells containing test compounds; Ac is the optical density of solutions in control wells without test compounds. For detailed information on cell viability of various cell lines, see the Supplementary Materials, Figures S21–S26.
(§3) At the second stage of this study, in order to more accurately calculate the CC50 (the half maximal inhibitory concentration), the cytotoxic effect of test compounds was evaluated at concentrations close to CC50 found at the first stage. The study of the cytotoxic activity of each substance towards the cells of each line was carried out in triplicate; the mean value was used to calculate CC50. The CC50 values were determined by non-linear regression analysis using Graph-Pad Prism7.
(Tetrazolium assays rely on reduction of a dye to a coloured formazan, in cell work by metabolically active cells.)

Series [3] can be described thus: MTT cytotoxicity assay, SNU-1. The conditions noted are these: human, CC50 of WI-38 divided by CC50 of SNU-1 (Table 3); read-out: SCI (selective cytotoxicity index). Type of series: cell-based, human.
From the text: as §1, §2, §3

The subject of series [4] is SK-BR-3 human breast adenocarcinoma. In words: MTT cytotoxicity assay, SK-BR-3. Type of series: cell-based. The conditions noted are these: Homo sapiens, SK-BR-3, 72 h, SK-BR-3, 72 h incubation, MTT, n = 3 (Table 3).
From the text: as §1, §2, §3

A short description of series [5]: MTT cytotoxicity assay, SK-BR-3. The conditions noted are these: human, CC50 of WI-38 divided by CC50 of SK-BR-3 (Table 3); read-out: SCI (selective cytotoxicity index). Type of series: cell-based, human.
From the text: as §1, §2, §3

The subject of series [6] is Jurkat human acute T-lymphoblastic leukemia. In words: MTT cytotoxicity assay, Jurkat. It counts as cell-based. The conditions noted are these: Homo sapiens, Jurkat, 72 h, 72 h incubation, MTT, n = 3 (Table 3).
From the text: as §1, §2, §3

The nature of series [7]: MTT cytotoxicity assay, Jurkat. Type of series: cell-based, human. The conditions noted are these: human, CC50 of WI-38 divided by CC50 of Jurkat (Table 3); read-out: SCI (selective cytotoxicity index).
From the text: as §1, §2, §3

In series [8] the test system is A549, SK-BR-3, SNU-1, Jurkat, WI-38 cell lines. In words: MTT cytotoxicity assay, cell line panel (result in words). Type of series: cell-based, human. The conditions noted are these: 72 h.
From the text: as §1
The cytotoxicity of compounds 2a–c, 6, 7, and 9 was also studied using the MTT assay against a number of tumor cell lines: A549, SK-BR-3, SNU-1, Jurkat, as well as normal fibroblasts WI-38 (Table 3).
as §2, §3

Series [9] relates to A549 human non-small-cell lung carcinoma. The series is described as follows: MTT cytotoxicity assay, A549. It counts as cell-based. The conditions noted are these: Homo sapiens, A549, 72 h, A549, 72 h incubation, MTT, n = 3 (Table 3).
From the text: as §1, §2, §3

Series [10] is described as follows: MTT cytotoxicity assay, A549. It counts as cell-based, human. The conditions noted are these: human, CC50 of WI-38 divided by CC50 of A549 (Table 3); read-out: SCI (selective cytotoxicity index).
From the text: as §1, §2, §3

A short description of series [11]: MTT cytotoxicity assay, WI-38 normal cells. Type of series: cell-based. The conditions noted are these: human, WI-38 lung fibroblasts (normal cells), WI-38, 72 h incubation, MTT, n = 3 (Table 3).
From the text: as §1, §2, §3

Each structure is given as a SMILES string.

As for `CC1COc2c(ccc(F)c2F)N1C(=O)CCCCCNc1ncnc2[nH]cnc12` (centres unmarked) [Compound 1b], the “antiviral activity in vitro against HSV-1” value in series [1] is recorded as “high antiviral activity”. Also, the CC50 was 20 µM in [2], greater than 100 µM in series [4], 67 µM in series [6] and 53 µM in [9]. Moreover, the selectivity ratio at 72 h was 4.9 in series [3], no more than 0.98 in series [5], 1.5 in series [7] and 1.8 in series [10]. The “cytotoxic activity (in words)” value in series [8] is “showed cytotoxic activity”. Further, the CC50 at 72 h in series [11] was determined as 98 µM.
